From the OPERA property sets (Mansouri et al. 2018)
In brackets after ≈: the same amount, converted by molar mass.

Details: not given
With O=C(Nc1ccccc1)Nc1ccccc1 the solubility was 0.707 mM (≈ 150 µg/mL).
NC(=O)c1cc(Cl)cc(Cl)c1N showed a solubility of 8.29 mM (≈ 1700 µg/mL).
O=C(O)c1ccc(Br)cc1 showed a solubility of 0.298 mM (≈ 60 µg/mL).
With CCC[C@H]1CCCCN1 the solubility was 141 mM (≈ 18000 µg/mL).
Work on CC1=C2[C@H]3OC(=O)[C@@H](C)[C@@H]3CC[C@@]2(C)C=CC1=O yielded a solubility of 0.812 mM (≈ 200 µg/mL).
With CN(C)C(=O)OC1=CC(=O)CC(C)(C)C1 the solubility was 142 mM (≈ 30000 µg/mL).
CCOc1ccc2nc(S(N)(=O)=O)sc2c1 gave a solubility of 0.155 mM (≈ 40 µg/mL).
O=C(OCC(O)CO)c1ccccc1Nc1ccnc2cc(Cl)ccc12 (stereo not given) gave a solubility of 107 mM (≈ 40000 µg/mL).
N[C@@H](C(=O)N[C@@H]1C(=O)N2C(C(=O)O)=C(Cl)CS[C@H]12)c1ccccc1 showed a solubility of 27.2 mM (≈ 10000 µg/mL).
With Cn1c(=O)[nH]c2[nH]c(=O)[nH]c2c1=O the solubility was 27.5 mM (≈ 5000 µg/mL).
Work on COC(=O)c1cc(O)c(O)c(O)c1 yielded a solubility of 57.6 mM (≈ 10600 µg/mL).
S=c1[nH]cnc2[nH]cnc12 showed a solubility of 450 mM (≈ 68500 µg/mL).
For O=C(O)c1c(O)cccc1O, the solubility was 62 mM (≈ 9560 µg/mL).
Compound O=C(O)c1ccc(Cl)c(Cl)c1 has a solubility of 0.32 mM (≈ 61.1 µg/mL).
O=C(O)c1cc(Cl)cc(Cl)c1 gave a solubility of 0.77 mM (≈ 147 µg/mL).

Same assay, conditions: 20 °C
Work on O=c1c(O)c(-c2ccc(O)cc2O)oc2cc(O)cc(O)c12 yielded a solubility of 0.827 mM (≈ 250 µg/mL).
With Nc1ccc2cc3ccc(N)cc3nc2c1 the solubility was 2390 mM (≈ 500000 µg/mL).
With CCNc1nc(NC(C)(C)C)nc(OC)n1 the solubility was 0.577 mM (≈ 130 µg/mL).
CN=C=S showed a solubility of 104 mM (≈ 7600 µg/mL).
With Clc1ccc(Cl)c(-c2cc(Cl)c(Cl)c(Cl)c2Cl)c1 the solubility was 2.09e-05 mM (≈ 0.00755 µg/mL).
C#CC(C)N(C)C(=O)Nc1ccc(Cl)cc1 (stereo not given) gave a solubility of 0.127 mM (≈ 30 µg/mL).
For O=C1NC(=O)C2C3C(C(O)(c4ccccc4)c4ccccn4)=CC(C3=C(c3ccccc3)c3ccccn3)C12 (stereo not given), the solubility was 0.117 mM (≈ 60 µg/mL).
For Clc1ccc(-c2cc(Cl)c(Cl)c(Cl)c2Cl)cc1Cl, the solubility was 1.48e-05 mM (≈ 0.00533 µg/mL).
Compound Cc1ccccc1OCC(O)CO (stereo not given) has a solubility of 64.8 mM (≈ 11800 µg/mL).
c1cnc2ncncc2n1 gave a solubility of 1080 mM (≈ 143000 µg/mL).
Compound OC[C@H]1O[C@@H](n2cnc3c(O)ncnc32)[C@H](O)[C@@H]1O has a solubility of 58.9 mM (≈ 15800 µg/mL).
For Clc1ccc(-c2c(Cl)cc(Cl)c(Cl)c2Cl)c(Cl)c1, the solubility was 3.37e-05 mM (≈ 0.0122 µg/mL).
With Clc1ccc(-c2ccc(Cl)c(Cl)c2)c(Cl)c1 the solubility was 0.000126 mM (≈ 0.0368 µg/mL).
c1ccc2c(c1)ccc1c2ccc2c3ccccc3ccc21 gave a solubility of 1.55e-05 mM (≈ 0.00431 µg/mL).
In the case of Oc1nc(O)c2nccnc2n1, the solubility is reported as 7.62 mM (≈ 1250 µg/mL).
With CCCCOCCOC(C)=O the solubility was 56.2 mM (≈ 9000 µg/mL).
O=C1C[C@@H](c2ccc(O)c(O)c2)Oc2cc(O)cc(O)c21 gave a solubility of 0.243 mM (≈ 70 µg/mL).
Work on CC1CNCCN1 (stereo not given) yielded a solubility of 4340 mM (≈ 435000 µg/mL).
In the case of Nc1cnn(-c2ccccc2)c(=O)c1Cl, the solubility is reported as 1.8 mM (≈ 400 µg/mL).
OCCCCl showed a solubility of 2640 mM (≈ 250000 µg/mL).
In the case of CCC(Cl)(Cl)[N+](=O)[O-], the solubility is reported as 31.7 mM (≈ 5000 µg/mL).
For NC[C@H](O)c1ccccc1, the solubility was 334 mM (≈ 45800 µg/mL).
Cc1ccc(Cl)cc1 showed a solubility of 0.837 mM (≈ 106 µg/mL).
CC(=NO)C(C)=NO showed a solubility of 5.17 mM (≈ 600 µg/mL).
Work on CCCCCC(=O)OC yielded a solubility of 10.2 mM (≈ 1330 µg/mL).
Compound CC(C)I has a solubility of 8.24 mM (≈ 1400 µg/mL).
CCOC(=O)CC showed a solubility of 188 mM (≈ 19200 µg/mL).
For CC(=O)CC1CCCCN1 (stereo not given), the solubility was 354 mM (≈ 50000 µg/mL).
Work on Clc1ccccc1-c1cccc(Cl)c1Cl yielded a solubility of 0.00114 mM (≈ 0.293 µg/mL).
In the case of CCCC1(CCC)C(=O)NC(=O)NC1=O, the solubility is reported as 2.83 mM (≈ 600 µg/mL).
CCOP(=S)(OCC)Oc1ccc(S(C)=O)cc1 (stereo not given) gave a solubility of 6.49 mM (≈ 2000 µg/mL).
With CCC(C)OC(C)=O (stereo not given) the solubility was 53.4 mM (≈ 6200 µg/mL).
O=C(O)[C@H]1CCCC[C@@H]1C(=O)O (relative stereo) showed a solubility of 11.6 mM (≈ 2000 µg/mL).

Same assay, conditions: 21 °C
O=C(O)CCCCCCCCCCCCC(=O)O gave a solubility of 0.774 mM (≈ 200 µg/mL).
NC(=S)c1c(Cl)cccc1Cl showed a solubility of 4.61 mM (≈ 950 µg/mL).

Same assay, conditions: 22 °C
With CNC(=O)ON=C(CSC)C(C)(C)C the solubility was 23.8 mM (≈ 5200 µg/mL).
With CCOC(=O)C(=O)C(=O)OCC the solubility was 3250 mM (≈ 566000 µg/mL).
With CC(=O)c1ccc(O)cc1 the solubility was 72.7 mM (≈ 9900 µg/mL).

Same assay, conditions: 23 °C
C=C(C)C1CC=C(C)C(=O)C1 (stereo not given) showed a solubility of 8.67 mM (≈ 1300 µg/mL).

Same assay, conditions: 24 °C
Compound CC=CCCCC has a solubility of 0.153 mM (≈ 15 µg/mL).
For O=P(OC(CCl)CCl)(OC(CCl)CCl)OC(CCl)CCl, the solubility was 0.0162 mM (≈ 7 µg/mL).
O=C1CN(N=Cc2ccc([N+](=O)[O-])o2)C(=O)N1 showed a solubility of 0.334 mM (≈ 79.5 µg/mL).
NC(=O)CCl showed a solubility of 962 mM (≈ 90000 µg/mL).
With O=C(O)c1c2ccccc2cc2ccccc12 the solubility was 0.382 mM (≈ 85 µg/mL).
CC(C)CC(=O)CC(C)C gave a solubility of 18.6 mM (≈ 2640 µg/mL).
CC(CN1c2ccccc2Sc2ccccc21)N(C)C (stereo not given) gave a solubility of 0.055 mM (≈ 15.6 µg/mL).

Same assay, conditions: 25 °C
Cc1ccccc1N1C(=O)c2cc(S(N)(=O)=O)c(Cl)cc2NC1C (stereo not given) showed a solubility of 0.165 mM (≈ 60.3 µg/mL).
Work on O=C1CCCCC1 yielded a solubility of 255 mM (≈ 25000 µg/mL).
Compound CCC(O)(CC)CC has a solubility of 145 mM (≈ 16800 µg/mL).
In the case of c1ccc2cc3cc4ccccc4cc3cc2c1, the solubility is reported as 6.61e-06 mM (≈ 0.00151 µg/mL).
In the case of CCOC(=O)C=Cc1ccccc1, the solubility is reported as 1.01 mM (≈ 178 µg/mL).
For C[C@H]1c2cccc(O)c2C(=O)C2=C(O)[C@]3(O)C(=O)C(C(N)=O)=C(O)[C@@H](N(C)C)[C@@H]3[C@@H](O)[C@@H]21, the solubility was 1.42 mM (≈ 630 µg/mL).
Oc1c(Cl)cc(Cl)c(Cl)c1Cc1c(O)c(Cl)cc(Cl)c1Cl gave a solubility of 0.344 mM (≈ 140 µg/mL).
Compound CC(=O)C(C)(C)C has a solubility of 190 mM (≈ 19000 µg/mL).
For CCOC(=O)C(C)N(C(=O)c1ccccc1)c1ccc(Cl)c(Cl)c1 (stereo not given), the solubility was 0.0546 mM (≈ 20 µg/mL).
Compound C=C[C@H]1CN2CCC1C[C@@H]2[C@@H](O)c1ccnc2ccccc12 (stereo not given in full) has a solubility of 0.744 mM (≈ 219 µg/mL).
Compound CCCCCCCBr has a solubility of 0.0371 mM (≈ 6.64 µg/mL).
CC(C)(OO)c1ccccc1 gave a solubility of 91.3 mM (≈ 13900 µg/mL).
In the case of Cc1ccc(C(=O)O)cc1, the solubility is reported as 2.5 mM (≈ 340 µg/mL).
With Cc1cc2ccccc2cc1C the solubility was 0.0127 mM (≈ 1.99 µg/mL).
In the case of C1CCC2CCCCC2C1 (stereo not given), the solubility is reported as 0.00643 mM (≈ 0.889 µg/mL).
C#CCCCCC showed a solubility of 0.977 mM (≈ 94 µg/mL).
Work on CCCCCCC yielded a solubility of 0.0339 mM (≈ 3.4 µg/mL).
For Cc1ccc2cc3ccccc3cc2c1, the solubility was 0.000111 mM (≈ 0.0213 µg/mL).
For C1CCCCCC1, the solubility was 0.306 mM (≈ 30 µg/mL).
